The values that follow are results of earlier work, collected in patent US20020132296A1, “Human Ste20-like stress activated serine/threonine kinase” (priority 1997, published 2002).

For series [1], the system named is LPS-stimulated macrophages.

Each structure is given as a SMILES string.

As for `C[S+]([O-])c1ccc(-c2nc(-c3ccncc3)c(-c3ccc(F)cc3)[nH]2)cc1` (centres unmarked) [SB203580], the “production of TNF and IL-1” value in series [1] is given as “inhibit”. In addition, the “production of TNF, IL-6 and IL-8” value in the series on TNF-stimulated HUVECs is “inhibit”.
